According to ChEMBL document CHEMBL4373641, “Synthesis and direct comparison of the anticancer activities of phomopsolides D and E and two 7-oxa-/7-aza-analogues” (Medchemcomm, 2019):

Assays:
Format in all cases: functional, cell-based
CCRF-CEM = assay: Antiproliferative activity against human CCRF-CEM cells assessed as reduction in cell viability after 48 hrs by SRB assay
HOP-92 = assay: Antiproliferative activity against human HOP92 cells assessed as reduction in cell viability after 48 hrs by SRB assay; conditions: HOP-92, 48 h
T47D = assay: Antiproliferative activity against human T47D cells assessed as reduction in cell viability after 48 hrs by SRB assay
SK-OV-3 = assay: Antiproliferative activity against human SKOV3 cells assessed as reduction in cell viability after 48 hrs by SRB assay; conditions: SK-OV-3, 48 h
U-251 = assay: Antiproliferative activity against human U251 cells assessed as reduction in cell viability after 48 hrs by SRB assay; conditions: U-251, 48 h
OVCAR-3 = assay: Antiproliferative activity against human OVCAR3 cells assessed as reduction in cell viability after 48 hrs by SRB assay; conditions: OVCAR-3, 48 h
MDA-MB-435 = assay: Antiproliferative activity against human MDA-MB-435 cells assessed as reduction in cell viability after 48 hrs by SRB assay; conditions: MDA-MB-435, 48 h
MDA-MB-231 = assay: Antiproliferative activity against human MDA-MB-231 cells assessed as reduction in cell viability after 48 hrs by SRB assay; conditions: MDA-MB-231, 48 h
DU-145 = assay: Antiproliferative activity against human DU145 cells assessed as reduction in cell viability after 48 hrs by SRB assay; conditions: DU-145, 48 h
COLO 205 = assay: Antiproliferative activity against human COLO205 cells assessed as reduction in cell viability after 48 hrs by SRB assay; conditions: COLO 205, 48 h
SNB-75 = assay: Antiproliferative activity against human SNB75 cells assessed as reduction in cell viability after 48 hrs by SRB assay; conditions: SNB-75, 48 h
786-0 = assay: Antiproliferative activity against human 786-0 cells assessed as reduction in cell viability after 48 hrs by SRB assay; conditions: 786-0, 48 h
KM12 = assay: Antiproliferative activity against human KM12 cells assessed as reduction in cell viability after 48 hrs by SRB assay; conditions: KM12, 48 h
SF-539 = assay: Antiproliferative activity against human SF539 cells assessed as reduction in cell viability after 48 hrs by SRB assay; conditions: SF-539, 48 h
SN12C = assay: Antiproliferative activity against human SN12C cells assessed as reduction in cell viability after 48 hrs by SRB assay
OVCAR-5 = assay: Antiproliferative activity against human OVCAR5 cells assessed as reduction in cell viability after 48 hrs by SRB assay; conditions: OVCAR-5, 48 h
IGROV-1 = assay: Antiproliferative activity against human IGROV1 cells assessed as reduction in cell viability after 48 hrs by SRB assay; conditions: IGROV-1, 48 h
RXF 393 = assay: Antiproliferative activity against human RXF393 cells assessed as reduction in cell viability after 48 hrs by SRB assay; conditions: RXF 393, 48 h
RPMI-8226 = assay: Antiproliferative activity against human RPMI8226 cells assessed as reduction in cell viability after 48 hrs by SRB assay; conditions: RPMI-8226, 48 h
PC-3 = assay: Antiproliferative activity against human PC3 cells assessed as reduction in cell viability after 48 hrs by SRB assay; conditions: PC-3, 48 h
NCI-H522 = assay: Antiproliferative activity against human NCI-H522 cells assessed as reduction in cell viability after 48 hrs by SRB assay; conditions: NCI-H522, 48 h, pooled result: one value given for 8 cell lines, strains, targets or settings
OVCAR-8 = assay: Antiproliferative activity against human OVCAR8 cells assessed as reduction in cell viability after 48 hrs by SRB assay; conditions: OVCAR-8, 48 h
SW-620 = assay: Antiproliferative activity against human SW620 cells assessed as reduction in cell viability after 48 hrs by SRB assay; conditions: SW-620, 48 h
TK-10 = assay: Antiproliferative activity against human TK10 cells assessed as reduction in cell viability after 48 hrs by SRB assay; conditions: TK-10, 48 h
HT-29 = assay: Antiproliferative activity against human HT-29 cells assessed as reduction in cell viability after 48 hrs by SRB assay; conditions: HT-29, 48 h
ACHN = assay: Antiproliferative activity against human ACHN cells assessed as reduction in cell viability after 48 hrs by SRB assay
HCC 2998 = assay: Antiproliferative activity against human HCC2998 cells assessed as reduction in cell viability after 48 hrs by SRB assay; conditions: HCC 2998, 48 h
OVCAR-4 = assay: Antiproliferative activity against human OVCAR4 cells assessed as reduction in cell viability after 48 hrs by SRB assay; conditions: OVCAR-4, 48 h
HL-60(TB) = assay: Antiproliferative activity against human HL-60(TB) cells assessed as reduction in cell viability after 48 hrs by SRB assay; conditions: HL-60, 48 h
MDA-MB-468 = assay: Antiproliferative activity against human MDA-MB-468 cells assessed as reduction in cell viability after 48 hrs by SRB assay; conditions: MDA-MB-468, 48 h
K562 = assay: Antiproliferative activity against human K562 cells assessed as reduction in cell viability after 48 hrs by SRB assay; conditions: K562, 48 h
MOLT-4 = assay: Antiproliferative activity against human MOLT4 cells assessed as reduction in cell viability after 48 hrs by SRB assay; conditions: MOLT-4, 48 h
SF-268 = assay: Antiproliferative activity against human SF268 cells assessed as reduction in cell viability after 48 hrs by SRB assay; conditions: SF-268, 48 h
HCT-15 = assay: Antiproliferative activity against human HCT15 cells assessed as reduction in cell viability after 48 hrs by SRB assay; conditions: HCT-15, 48 h
Hs-578T = assay: Antiproliferative activity against human Hs 578T cells assessed as reduction in cell viability after 48 hrs by SRB assay
HCT-116 = assay: Antiproliferative activity against human HCT116 cells assessed as reduction in cell viability after 48 hrs by SRB assay; conditions: HCT-116, 48 h
BT-549 = assay: Antiproliferative activity against human BT549 cells assessed as reduction in cell viability after 48 hrs by SRB assay; conditions: BT-549, 48 h
UO-31 = assay: Antiproliferative activity against human UO31 cells assessed as reduction in cell viability after 48 hrs by SRB assay; conditions: UO-31, 48 h
SNB-19 = assay: Antiproliferative activity against human SNB19 cells assessed as reduction in cell viability after 48 hrs by SRB assay; conditions: SNB-19, 48 h
SR = assay: Antiproliferative activity against human SR cells assessed as reduction in cell viability after 48 hrs by SRB assay
NCI/ADR-RES = assay: Antiproliferative activity against human NCI/ADR-RES cells assessed as reduction in cell viability after 48 hrs by SRB assay
A498 = assay: Antiproliferative activity against human A498 cells assessed as reduction in cell viability after 48 hrs by SRB assay; conditions: A498, 48 h
UACC-62 = assay: Antiproliferative activity against human UACC62 cells assessed as reduction in cell viability after 48 hrs by SRB assay; conditions: UACC-62, 48 h, pooled result: one value given for 8 cell lines, strains, targets or settings
CAKI-1 = assay: Antiproliferative activity against human CAKI-1 cells assessed as reduction in cell viability after 48 hrs by SRB assay; conditions: CAKI-1, 48 h
MCF7 = assay: Antiproliferative activity against human MCF7 cells assessed as reduction in cell viability after 48 hrs by SRB assay; conditions: MCF7, 48 h
SF-295 = assay: Antiproliferative activity against human SF295 cells assessed as reduction in cell viability after 48 hrs by SRB assay; conditions: SF-295, 48 h

Measured: IC50

C/C=C(\C)C(=O)O[C@H]1C=CC(=O)O[C@H]1CC[C@H](O)[C@H](C)O [6,7-DIHYDROPHOMOPSOLIDE B]
11 µM: T47D | MDA-MB-435 | MDA-MB-231 | Hs-578T | NCI/ADR-RES | MCF7
18 µM: SK-OV-3 | OVCAR-3 | DU-145 | OVCAR-5 | IGROV-1 | PC-3 | NCI-H522 | OVCAR-8 | OVCAR-4
17 µM: U-251 | SNB-75 | SF-539 | SF-268 | SNB-19 | SF-295
2 to 49 µM: all other assays above

C/C=C(\C)C(=O)O[C@H]1C=CC(=O)O[C@H]1COC(=O)[C@H](C)O
2 to 49 µM: CCRF-CEM | HOP-92 | RPMI-8226 | HL-60(TB) | MDA-MB-468 | K562 | MOLT-4 | BT-549 | SR
11 µM: COLO 205 | KM12 | SW-620 | HT-29 | HCC 2998 | HCT-15 | HCT-116
19 µM: NCI-H522
15 µM: 786-0 | SN12C | RXF 393 | TK-10 | ACHN | UO-31 | A498 | CAKI-1
13 µM: UACC-62
12 µM: T47D | MDA-MB-435 | MDA-MB-231 | Hs-578T | NCI/ADR-RES | MCF7
16 µM: all other assays above
